From PubChem BioAssay AID2060502 (Molecular Pharmacology Branch, DTP, NCI, 2025)
pIC50: −log10 of the molar value.

Tested on: 885724-159-R-J1-PDC complex spheroid viability
Assay: Anticancer human tumor 885724-159-R-J1-PDC patient-derived pancreatic adenocarcinoma cell line growth inhibition [GQUAD]
Conditions: for pIC50: curve of first compound; for viability, T/C: stronger effect = lower value
Outline: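 Multi-cell-type spheroids of tumor cells with HUVEC and mesenchymal stem cells, treated with drug combinations. Concentrations descend in half-log steps from near clinical Cmax, or from 10 microM where Cmax is unknown; viability read-out.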

[1] = second compound 0.0316 µM, first compound 0.0316 µM
[2] = second compound 0.0316 µM, first compound 0.1 µM
[3] = second compound 0.0316 µM, first compound 0.316 µM
[4] = second compound 0.0316 µM, first compound 1 µM
[5] = second compound 0.0316 µM, first compound 3.16 µM
[6] = second compound 0.0316 µM, first compound 10 µM
[7] = second compound 0.1 µM, first compound 0.0316 µM
[8] = second compound 0.1 µM, first compound 0.1 µM
[9] = second compound 0.1 µM, first compound 0.316 µM
[10] = second compound 0.1 µM, first compound 1 µM
[11] = second compound 0.1 µM, first compound 3.16 µM
[12] = second compound 0.1 µM, first compound 10 µM
[13] = second compound 0.316 µM, first compound 0.0316 µM
[14] = second compound 0.316 µM, first compound 0.1 µM
[15] = second compound 0.316 µM, first compound 0.316 µM
[16] = second compound 0.316 µM, first compound 1 µM
[17] = second compound 0.316 µM, first compound 3.16 µM
[18] = second compound 0.316 µM, first compound 10 µM
[19] = second compound 1 µM, first compound 0.0316 µM
[20] = second compound 1 µM, first compound 0.1 µM
[21] = second compound 1 µM, first compound 0.316 µM
[22] = second compound 1 µM, first compound 1 µM
[23] = second compound 1 µM, first compound 3.16 µM
[24] = second compound 1 µM, first compound 10 µM
[25] = second compound 3.16 µM, first compound 0.0316 µM
[26] = second compound 3.16 µM, first compound 0.1 µM
[27] = second compound 3.16 µM, first compound 0.316 µM
[28] = second compound 3.16 µM, first compound 1 µM
[29] = second compound 3.16 µM, first compound 3.16 µM
[30] = second compound 3.16 µM, first compound 10 µM
[31] = second compound 10 µM, first compound 0.0316 µM
[32] = second compound 10 µM, first compound 0.1 µM
[33] = second compound 10 µM, first compound 0.316 µM
[34] = second compound 10 µM, first compound 1 µM
[35] = second compound 10 µM, first compound 3.16 µM
[36] = second compound 10 µM, first compound 10 µM
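Also: spheroids exposed to agents for seven days before readout.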
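For viability, T/C in this document: percent of vehicle control viability where 100% = DMSO wells.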

CC(C)(O)C1CCC(Nc2ccc3ncc(-c4cccc(C(F)(F)F)c4)n3n2)CC1 (centres undefined) + CN(C)c1ccc(Nc2c3ccc(NC(=O)CCN4CCCC4)cc3nc3cc(NC(=O)CCN4CCCC4)ccc23)cc1
pIC50 (second compound 0.0316 µM): 5.56 | pIC50 (second compound 0.1 µM): 5.50 | pIC50 (second compound 0.316 µM): 5.73 | pIC50 (second compound 1 µM): 5.79 | pIC50 (second compound 3.16 µM): 6.12 | pIC50 (second compound 10 µM): 5.92 | viability, T/C [1]: 109% | viability, T/C [2]: 98% | viability, T/C [3]: 87% | viability, T/C [4]: 70.5% | viability, T/C [5]: 42.1% | viability, T/C [6]: 41.2% | viability, T/C [7]: 97.7% | viability, T/C [8]: 92.8% | viability, T/C [9]: 80.3% | viability, T/C [10]: 71.2% | viability, T/C [11]: 44.8% | viability, T/C [12]: 44.1% | viability, T/C [13]: 83.7% | viability, T/C [14]: 84.2% | viability, T/C [15]: 71.6% | viability, T/C [16]: 64.1% | viability, T/C [17]: 38% | viability, T/C [18]: 35.7% | viability, T/C [19]: 83.6% | viability, T/C [20]: 67.9% | viability, T/C [21]: 71.1% | viability, T/C [22]: 62.3% | viability, T/C [23]: 30.5% | viability, T/C [24]: 35.6% | viability, T/C [25]: 76.1% | viability, T/C [26]: 75.6% | viability, T/C [27]: 65.9% | viability, T/C [28]: 44.5% | viability, T/C [29]: 27.9% | viability, T/C [30]: 19.3% | viability, T/C [31]: 62% | viability, T/C [32]: 63.5% | viability, T/C [33]: 57.3% | viability, T/C [34]: 55.7% | viability, T/C [35]: 20.6% | viability, T/C [36]: 7.17%

CC(C)n1c(=O)n(C)c2cnc3cc(F)c(-c4ccc(OCCCN5CCCCC5)nc4)cc3c21 + Cc1cnc(CNC(=O)c2c(=O)c3ccc(N4CCCN(C)CC4)nc3n3c2sc2ccccc23)cn1
pIC50 (second compound 0.0316 µM): < 5.00 | pIC50 (second compound 0.1 µM): < 5.00 | pIC50 (second compound 0.316 µM): < 5.00 | pIC50 (second compound 1 µM): < 5.00 | pIC50 (second compound 3.16 µM): 5.19 | pIC50 (second compound 10 µM): 5.28 | viability, T/C [1]: 91.3% | viability, T/C [2]: 94.1% | viability, T/C [3]: 95.3% | viability, T/C [4]: 114% | viability, T/C [5]: 77.6% | viability, T/C [6]: 65.7% | viability, T/C [7]: 108% | viability, T/C [8]: 107% | viability, T/C [9]: 96.1% | viability, T/C [10]: 106% | viability, T/C [11]: 93.6% | viability, T/C [12]: 67.2% | viability, T/C [13]: 92.6% | viability, T/C [14]: 93% | viability, T/C [15]: 88.5% | viability, T/C [16]: 108% | viability, T/C [17]: 81.2% | viability, T/C [18]: 64.2% | viability, T/C [19]: 82.5% | viability, T/C [20]: 87.1% | viability, T/C [21]: 90.5% | viability, T/C [22]: 94.6% | viability, T/C [23]: 78.5% | viability, T/C [24]: 53.1% | viability, T/C [25]: 73.2% | viability, T/C [26]: 73.4% | viability, T/C [27]: 78.8% | viability, T/C [28]: 68.3% | viability, T/C [29]: 67.8% | viability, T/C [30]: 39.9% | viability, T/C [31]: 76.1% | viability, T/C [32]: 71.1% | viability, T/C [33]: 73.8% | viability, T/C [34]: 70.8% | viability, T/C [35]: 61.7% | viability, T/C [36]: 35.3%
